Results taken from patent publication US20190374574A1, “COMPOSITION FOR THE TREATMENT OF GASTROINTESTINAL DISORDERS” (NEILOS S.R.L., priority 2017, published 2019).
Like-named read-outs stand apart in the source and are kept apart here.

Tests used:
[1] = tested on: Male mice of the ICR strain; experiment: Diarrhoea induced by castor oil in mice; format: in vivo; details: oral; for effect on diarrhoea induced by castor oil (percentage of mice that exhibited diarrhoea at the second hour): 30 minutes before castor oil 0.2 ml/mouse, evaluated 2 hours after castor oil, vs control
Procedure: In the following tests, the effect of two formulations and their individual constituents was evaluated in order to determine a possible synergistic effect among the individual components on diarrhoea induced by castor oil.
Male mice of the ICR strain supplied by the company Charles River and weighing 20-25 g were used. The animals were housed in temperature-controlled rooms (temperature of 23±2° C., humidity of 50±2%, 12-hour light-dark cycles) and had free access to water and food, consisting of a standard diet supplied by the company Mucedola Mangimi (Settimo Milanese, Italy). All experiments were performed in observance of Legislative Decree no. 116 of 27 Jan. 1992 and according to the guidelines of the Council of the European Union (86/609/EEC and 2010/63/EU).
The technique of Borrelli et al. (Borrelli F, Capasso F, Capasso R, Ascione V, Aviello G, Longo R, Izzo A A (2006). “Effect of Boswellia serrata on intestinal motility in rodents: inhibition of diarrhoea without constipation” Br J Pharmacol 148:553-560) was used. In practical terms, the mice were fasted for a period of 12 hours and then isolated in individual cages provided with a mesh on the bottom, set 5 cm above a sheet of absorbent paper. This enabled inspection of the excreted faeces. 30 minutes after administration of the samples to be tested, the animals received 0.2 ml of castor oil by means of a gastric probe. The diarrhoea was evaluated 15 minutes after the administration of the cathartic agent and every 15 minutes until the second hour. […]
Two formulations (according to the invention) were evaluated, consisting, respectively, of activated charcoal, Carum carvi, papain, α-galactosidase and β-galactosidase (total formulation) and activated charcoal, Carum carvi and papain (partial formulation). […]
The results are expressed as the mean±standard error of the mean (S.E.M.). The difference between two means was evaluated by means of Student's t-test. […]

[2] = tested on: patients with lactose intolerance; details: cited from earlier work; for reduction in the hydrogen concentration compared to the placebo: p<0.001; for hydrogen concentration in expired air: placebo 51.46±16.12

| Molecule | effect on diarrhoea induced by castor oil (percentage of mice that exhibited diarrhoea at the second hour) [1] | reduction in the hydrogen concentration compared to the placebo ([2]; group A: 3000 U of lactase added to milk 10 hours prior to administration) [%] | hydrogen concentration in expired air ([2]; group A: 3000 U of lactase added to milk 10 hours prior) [p.p.m.] | reduction in the hydrogen concentration compared to the placebo ([2]; group B: 6000 U of lactase added to milk 5 minutes prior to ingestion) [%] | hydrogen concentration in expired air ([2]; group B: 6000 U of lactase added to milk 5 minutes prior) [p.p.m.] | cumulative quantity of expired hydrogen vs group C (placebo) ([2]; groups A and B) | dose at which the reduction of castor oil diarrhoea was significant ([1]; 2 hours after castor oil) [mg/kg] |
| --- | --- | --- | --- | --- | --- | --- | --- |
| β-galactosidase | not capable of modifying the cathartic effect of the castor oil | 77 | 12.07±7.8 | 73 | 13.97±7.99 | significantly lower |  |
| Papain: Papain (CAS N. 9001-73-4), cysteine-protease from Carica papaya, activity greater than or equal to 2.5 FIP UI/mg (protein, UniProt P00784 134-345, looked up) Papain: IPEYVDWRQKGAVTPVKNQGSCGSCWAFSAVVTIEGIIKIRTGNLNEYSEQELLDCDRRSYGCNGGYPWSALQLVAQYGIHYRNTYPYEGVQRYCRSREKGPYAAKTDGVRQVQPYNEGALLYSIANQPVSVVLEAAGKDFQLYRGGIFVGPCGNKVDHAVAAVGYGPNYILIKNSWGTGWGENGYIRIKRGTGNSYGVCGLYTSSFYPVKN | significantly reduced diarrhoea |  |  |  |  |  | 30 |
